# Measurements published in BindingDB's records for doi:10.1021/ml400370w (The Scripps Research Institute, 2014).
# Assay: Antagonist activity against CCR5 receptor in human TZM-bl cells assessed as inhibition of HIV-1 JR-FL-induced cell-cell fusion between viral envelope protein expressing human HEK293 cells to TZM-bl cells after 48 hrs by luciferase reporter gene assay
row,SMILES,IC50 [nM]
1,Cc1nnc(C(C)C)n1C1CC2CCC(C1)N2CC[C@H](NC(=O)COCCOCCOCCN=[N+]=[N-])c1ccccc1 (stereo partly specified),> 1000
2,Cc1nnc(C(C)C)n1C1CC2CCC(C1)N2CC[C@H](NC(=O)CCCCCCCCCCN=[N+]=[N-])c1ccccc1 (stereo partly specified),360
3,Cc1nnc(CCCCCCCCCCN=[N+]=[N-])n1C1CC2CCC(C1)N2CC[C@H](NC(=O)C1CCC(F)(F)CC1)c1ccccc1 (stereo partly specified),0.96

# The remaining lines, values ahead:
row,IC50 [nM],SMILES
1,3,Cc1nnc(CCCCCCCCCCn2cc(COCCOCCOCCOCCOCc3ccc(C(=O)NCCCNC(=O)OC(C)(C)C)cc3)nn2)n1C1CC2CCC(C1)N2CC[C@H](NC(=O)C1CCC(F)(F)CC1)c1ccccc1 (stereo partly specified)
2,2.6,Cc1nnc(CCCCCCCCCCn2cc(COCCOCCOCCOCCOCc3ccc(C(=O)N4CCC4=O)cc3)nn2)n1C1CC2CCC(C1)N2CC[C@H](NC(=O)C1CCC(F)(F)CC1)c1ccccc1 (stereo partly specified)
3,27,Cc1nnc(C(C)C)n1C1CC2CCC(C1)N2CC[C@H](NC(=O)CCCCCCCCCCn1cc(COCCOCCOCCOCCOCc2ccc(C(=O)N3CCC3=O)cc2)nn1)c1ccccc1 (stereo partly specified)
